The source of these data is US20260146035A1, “FUSED BICYCLIC COMPOUNDS AND THEIR USE AS MER AND AXL INHIBITORS” (DONG-A ST CO., LTD., priority 2022, published 2026).

Each structure is given as a SMILES string.

One assay concerns the target T1, human MER (528-end) (Homo sapiens, UniProt Q12866).
T1 construct: human MER (528-end); purchased Camnabio, Japan
T1 sequence (Q12866 528-999 limits assumed): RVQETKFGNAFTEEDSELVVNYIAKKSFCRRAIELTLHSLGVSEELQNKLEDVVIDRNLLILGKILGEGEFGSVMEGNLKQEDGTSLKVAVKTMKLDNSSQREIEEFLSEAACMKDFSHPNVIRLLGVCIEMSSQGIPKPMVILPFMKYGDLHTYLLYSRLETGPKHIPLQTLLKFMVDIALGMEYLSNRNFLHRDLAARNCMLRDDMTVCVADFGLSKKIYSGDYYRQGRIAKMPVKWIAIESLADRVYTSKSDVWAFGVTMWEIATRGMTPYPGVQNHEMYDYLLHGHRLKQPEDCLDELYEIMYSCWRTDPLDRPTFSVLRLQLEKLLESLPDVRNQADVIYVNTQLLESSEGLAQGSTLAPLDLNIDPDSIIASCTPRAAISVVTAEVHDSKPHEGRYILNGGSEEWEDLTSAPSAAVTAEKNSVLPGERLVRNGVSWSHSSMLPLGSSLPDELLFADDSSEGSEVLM
Put plainly: HTRF kinase activity biochemical assay, MER. The following applies: 10 μM ATP, 30 minutes pre-incubation; read-out: HTRF MERTK IC50.

In a further assay the target is T2, human AXL (473-end) (Homo sapiens, UniProt P30530).
T2 construct: human AXL (473-end); purchased SignalChem, Canada
T2 sequence (P30530 473-894 limits assumed): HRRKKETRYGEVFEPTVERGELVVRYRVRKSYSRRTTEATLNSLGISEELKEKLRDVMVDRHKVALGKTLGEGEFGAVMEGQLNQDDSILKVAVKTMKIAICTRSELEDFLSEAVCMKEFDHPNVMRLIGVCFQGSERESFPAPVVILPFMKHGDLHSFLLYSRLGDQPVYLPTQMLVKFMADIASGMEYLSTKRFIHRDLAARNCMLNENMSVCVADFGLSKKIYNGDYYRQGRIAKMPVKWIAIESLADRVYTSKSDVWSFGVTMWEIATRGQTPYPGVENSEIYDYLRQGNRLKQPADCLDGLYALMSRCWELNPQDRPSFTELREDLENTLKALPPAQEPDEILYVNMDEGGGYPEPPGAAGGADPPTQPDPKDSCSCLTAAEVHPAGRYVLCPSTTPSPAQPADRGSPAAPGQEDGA
Put plainly: HTRF kinase activity biochemical assay, AXL. The following applies: 10 μM ATP, 30 minutes pre-incubation.

The target of the next assay is T3, human TYRO3 (455-end) (Homo sapiens, UniProt Q06418).
T3 construct: TYRO3 (455-end); purchased SignalChem, Canada
T3 sequence (Q06418 455-890 limits assumed): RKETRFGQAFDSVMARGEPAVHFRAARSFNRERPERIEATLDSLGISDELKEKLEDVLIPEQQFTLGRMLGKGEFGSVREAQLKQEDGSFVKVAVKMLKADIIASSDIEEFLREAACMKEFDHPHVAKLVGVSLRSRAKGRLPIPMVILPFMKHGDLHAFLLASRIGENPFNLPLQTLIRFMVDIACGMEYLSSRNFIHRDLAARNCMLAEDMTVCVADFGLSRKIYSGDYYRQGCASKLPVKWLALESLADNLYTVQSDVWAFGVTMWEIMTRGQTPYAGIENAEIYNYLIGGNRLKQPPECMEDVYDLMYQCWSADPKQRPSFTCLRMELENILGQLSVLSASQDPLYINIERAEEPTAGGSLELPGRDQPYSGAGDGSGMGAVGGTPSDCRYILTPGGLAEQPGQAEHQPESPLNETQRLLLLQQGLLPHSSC
Nature of the assay: HTRF kinase activity biochemical assay, TYRO3. The conditions noted are these: 10 μM ATP, 30 minutes pre-incubation; read-out: HTRF TYRO IC50.

Consider `CN1CCN([C@@H]2CC(C)(C)c3cc(-c4ccc(CO[C@H]5CCC[C@@H]5NC(=O)c5cc(-c6cnn(C)c6)cnc5N)cc4)ccc32)CC1` [Example 145, 2-amino-N-[(1S,2S)-2-({4-[(1R)-3,3-dimethyl-1-(4-methylpiperazin-1-yl)-2,3-dihydro-1H-inden-5-yl]phenyl}methoxy)cyclopentyl]-5-(1-methyl-1H-pyrazol-4-yl)pyridine-3-carboxamide], for which the IC50 was 0.01 to 0.1 µM on human MER (528-end), 0.01 to 0.1 µM against human AXL (473-end) and > 1 µM at human TYRO3 (455-end).

As to `Cn1cc(-c2cnc(N)c(C(=O)N[C@H]3CCC[C@@H]3OCc3ccc(-c4ccc5c(c4)C(C)(C)CCC5N4CCNCC4)cc3)c2)cn1` (stereo partly drawn) [Example 146, 2-amino-N-[(1S,2S)-2-({4-[8,8-dimethyl-5-(piperazin-1-yl)-5,6,7,8-tetrahydronaphthalen-2-yl]phenyl}methoxy)cyclopentyl]-5-(1-methyl-1H-pyrazol-4-yl)pyridine-3-carboxamide], the IC50 at human MER (528-end) is < 0.01 µM; on human AXL (473-end) it was < 0.01 µM; at human TYRO3 (455-end), 0.01 to 0.1 µM.

As to `CN1CCN(C2CCC(C)(C)c3cc(-c4ccc(CO[C@H]5CCC[C@@H]5NC(=O)c5cc(-c6cnn(C)c6)cnc5N)cc4)ccc32)CC1` (stereo partly drawn) [Example 147, 2-amino-N-[(1S,2S)-2-({4-[8,8-dimethyl-5-(4-methylpiperazin-1-yl)-5,6,7,8-tetrahydronaphthalen-2-yl]phenyl}methoxy)cyclopentyl]-5-(1-methyl-1H-pyrazol-4-yl)pyridine-3-carboxamide], the half-inhibitory concentration (IC50) at human MER (528-end) was < 0.01 µM; against human AXL (473-end), < 0.01 µM; on human TYRO3 (455-end), 0.01 to 0.1 µM.

On to `Cn1cc(-c2cnc(N)c(C(=O)N[C@H]3CCC[C@@H]3OCc3ccc(-c4ccc5c(c4)C(C)(C)CCC5N4CCN(CCO)CC4)cc3)c2)cn1` (stereo partly drawn) [Example 148, 2-amino-N-{(1S,2S)-2-[(4-{5-[4-(2-hydroxyethyl)piperazin-1-yl]-8,8-dimethyl-5,6,7,8-tetrahydronaphthalen-2-yl}phenyl)methoxy]cyclopentyl}-5-(1-methyl-1H-pyrazol-4-yl)pyridine-3-carboxamide], for which the 50% inhibitory concentration (IC50) on human MER (528-end) is < 0.01 µM; at human AXL (473-end) it was < 0.01 µM; on human TYRO3 (455-end) it was 0.01 to 0.1 µM.

Consider `Nc1ncc(-c2cccnc2F)cc1C(=O)N[C@H]1CCC[C@@H]1OCc1ccc(-c2ccc3c(c2)CCCC3N2CCN(CCO)CC2)cc1` (stereo partly drawn) [Example 149, 6-amino-2′-fluoro-N-{(1S,2S)-2-[(4-{5-[4-(2-hydroxyethyl)piperazin-1-yl]-5,6,7,8-tetrahydronaphthalen-2-yl}phenyl)methoxy]cyclopentyl}[3,3′-bipyridine]-5-carboxamide], for which the half-inhibitory concentration (IC50) on human MER (528-end) was < 0.01 µM; against human AXL (473-end), < 0.01 µM; on human TYRO3 (455-end) it was 0.01 to 0.1 µM.

For the molecule `CN1CCN([C@H]2CC(C)(C)c3cc(-c4ccc(CO[C@H]5CCC[C@@H]5NC(=O)c5cc(-c6cccnc6F)cnc5N)cc4)ccc32)CC1` [Example 150, 6-amino-N-[(1S,2S)-2-({4-[(1S)-3,3-dimethyl-1-(4-methylpiperazin-1-yl)-2,3-dihydro-1H-inden-5-yl]phenyl}methoxy)cyclopentyl]-2′-fluoro[3,3′-bipyridine]-5-carboxamide], the values for the IC50 on human MER (528-end), against human AXL (473-end) and at human TYRO3 (455-end) were < 0.01 µM, < 0.01 µM and 0.01 to 0.1 µM, respectively.

With `COc1ccc(-c2cnc(N)c(C(=O)N[C@H]3CCC[C@@H]3OCc3ccc(-c4ccc5c(c4)CC[C@@H]5N4CCN(C)CC4)cc3)c2)cn1` [Example 152, 6-amino-6′-methoxy-N-[(1S,2S)-2-({4-[(1S)-1-(4-methylpiperazin-1-yl)-2,3-dihydro-1H-inden-5-yl]phenyl}methoxy)cyclopentyl][3,3′-bipyridine]-5-carboxamide], the values for the concentration for half-maximal inhibition (IC50) at human MER (528-end), against human AXL (473-end) and at human TYRO3 (455-end) were < 0.01 µM, < 0.01 µM and 0.1 to 1 µM, respectively.

As to `N#Cc1ccc(-c2cnc(N)c(C(=O)N[C@H]3CCC[C@@H]3OCc3ccc(-c4ccc5c(c4)CC[C@@H]5N4CCN(CCO)CC4)cc3)c2)cn1` [Example 153, 6-amino-6′-cyano-N-{(1S,2S)-2-[(4-{(1S)-1-[4-(2-hydroxyethyl)piperazin-1-yl]-2,3-dihydro-1H-inden-5-yl}phenyl)methoxy]cyclopentyl}[3,3′-bipyridine]-5-carboxamide], the IC50 at human MER (528-end) was < 0.01 µM; on human AXL (473-end) it was < 0.01 µM; on human TYRO3 (455-end), 0.1 to 1 µM.

Regarding `CN1CCN([C@H]2CCc3cc(-c4ccc(CO[C@H]5CCC[C@@H]5NC(=O)c5cc(-c6ccc(C#N)nc6)cnc5N)cc4)ccc32)CC1` [Example 154, 6-amino-6′-cyano-N-[(1S,2S)-2-({4-[(1S)-1-(4-methylpiperazin-1-yl)-2,3-dihydro-1H-inden-5-yl]phenyl}methoxy)cyclopentyl][3,3′-bipyridine]-5-carboxamide], the values for the IC50 at human MER (528-end), on human AXL (473-end) and at human TYRO3 (455-end) were < 0.01 µM, < 0.01 µM and 0.1 to 1 µM, respectively.

Regarding `COc1c(-c2cnn(C)c2)cnc(N)c1C(=O)N[C@H]1CCC[C@@H]1OCc1ccc(-c2ccc3c(c2)CC[C@@H]3N2CCN(CCO)CC2)cc1` [Example 155, 2-amino-N-{(1S,2S)-2-[(4-{(1S)-1-[4-(2-hydroxyethyl)piperazin-1-yl]-2,3-dihydro-1H-inden-5-yl}phenyl)methoxy]cyclopentyl}-4-methoxy-5-(1-methyl-1H-pyrazol-4-yl)pyridine-3-carboxamide], the 50% inhibitory concentration (IC50) is < 0.01 µM on human MER (528-end), < 0.01 µM against human AXL (473-end) and 0.1 to 1 µM on human TYRO3 (455-end).

Consider `Cn1cc(-c2cnc(N)c(C(=O)N[C@H]3CCC[C@@H]3OCc3ccc(-c4ccc5c(c4)ncn5C4CCN(CCO)CC4)cc3)c2)cn1` [Example 156, 2-amino-N-{(1S,2S)-2-[(4-{1-[1-(2-hydroxyethyl)piperidin-4-yl]-1H-benzimidazol-5-yl}phenyl)methoxy]cyclopentyl}-5-(1-methyl-1H-pyrazol-4-yl)pyridine-3-carboxamide], for which the IC50 on human MER (528-end) is 0.1 to 1 µM; against human AXL (473-end) it was > 1 µM; at human TYRO3 (455-end) it was > 1 µM.

On to `COc1c(-c2cnn(C)c2)cnc(N)c1C(=O)N[C@H]1CCC[C@@H]1OCc1ccc(-c2ccc3c(c2)CC[C@@H]3N2CCN(C)CC2)cc1` [Example 157, 2-amino-4-methoxy-N-[(1S,2S)-2-({4-[(1S)-1-(4-methylpiperazin-1-yl)-2,3-dihydro-1H-inden-5-yl]phenyl}methoxy)cyclopentyl]-5-(1-methyl-1H-pyrazol-4-yl)pyridine-3-carboxamide], for which the IC50 is < 0.01 µM at human MER (528-end), < 0.01 µM against human AXL (473-end) and 0.1 to 1 µM on human TYRO3 (455-end).

As for `Cn1cc(-c2cnc(N)c(C(=O)N[C@H]3CCC[C@@H]3OCc3ccc(-c4cnc5c(c4)C(C)(C)CCN5C4CCN(CCO)CC4)cc3)c2)cn1` [Example 158, 2-amino-N-{(1S,2S)-2-[(4-{8-[1-(2-hydroxyethyl)piperidin-4-yl]-5,5-dimethyl-5,6,7,8-tetrahydro-1,8-naphthyridin-3-yl}phenyl)methoxy]cyclopentyl}-5-(1-methyl-1H-pyrazol-4-yl)pyridine-3-carboxamide], the IC50 on human MER (528-end) is < 0.01 µM; against human AXL (473-end), < 0.01 µM; at human TYRO3 (455-end), 0.01 to 0.1 µM.

For the molecule `Cn1cc(-c2cnc(N)c(C(=O)N[C@H]3CCC[C@@H]3OCc3ccc(-c4cnc5c(c4)CCCN5C4CCN(CCO)CC4)cc3)c2)cn1` [Example 162, 2-amino-N-{(1S,2S)-2-[(4-{8-[1-(2-hydroxyethyl)piperidin-4-yl]-5,6,7,8-tetrahydro-1,8-naphthyridin-3-yl}phenyl)methoxy]cyclopentyl}-5-(1-methyl-1H-pyrazol-4-yl)pyridine-3-carboxamide], the values for the half-inhibitory concentration (IC50) at human MER (528-end), on human AXL (473-end) and at human TYRO3 (455-end) were < 0.01 µM, < 0.01 µM and 0.01 to 0.1 µM, respectively.
